Test results: patent US20180000737A1, “INJECTABLE AGGREGATES FOR JOINT AND SOFT TISSUE DISTRESS” (VISGO THERAPEUTICS, INC., priority 2015, published 2018)

Conditions: sheep, in vivo, 7 days
From the text: In another embodiment, the present disclosure provides a composition that achieves both immediate and extended release of an active pharmaceutical ingredient (API) upon administration to a subject, the composition comprising chitosan particles and API, the release occurring through at least one of diffusion of API from the particles and breakdown of the particles to release entrapped API. In additional embodiments, the present disclosure provides a composition that achieves both immediate and extended release of an API which is characterized by any one or more of the following exemplary features: the chitosan particles comprise crosslinked chitosan; the API is an NSAID; the API is diclofenac which optionally may be in whole or in part in crystalline form; the immediate release occurs over a period of 12 hours from the administration, and releases from 5 to 70% of API from the particles; the extended release occurs over a period of 0.5 to 7 days from administration, and releases 5 to 70% of the API from the particles; the particles are taken up by the synovium after administration to the subject. […] Accordingly, the incorporation of API into a crosslinked chitosan particle as disclosed herein may provide an extended release of API into the synovial fluid.

- synovial fluid concentration of diclofenac: about 0.05 mg/mL
SMILES: O=C(O)Cc1ccccc1Nc1c(Cl)cccc1Cl [diclofenac, 2-(2-(2,6-dichlorophenylamino)phenyl)acetic acid]
